Measured values as given in US8507493B2 (AbbVie Inc., priority 2009, dated 2013).

The compounds below were run against T1, human 11β-HSD1 (Homo sapiens, UniProt P28845) (assay: Human 11β-HSD1 enzymatic SPA assay). Details: truncated (24-287aa) human 11β-HSD1, apparent Ki from IC50 by Cheng-Prusoff.
T1 construct: truncated (24-287aa) human 11β-HSD1 enzyme; made in house; host or cells: E. coli (lysate, not purified)
Assay type: biochemical
Experimental: The ability of test compounds to inhibit human 11β-HSD1 enzymatic activity in vitro was evaluated in a Scintillation Proximity Assay (SPA). Tritiated-cortisone substrate, NADPH cofactor and titrated compound were incubated with truncated (24-287aa) human 11β-HSD1 enzyme at room temperature to allow the conversion to cortisol to occur. The reaction was stopped by adding a non-specific 11β-HSD inhibitor, glycyrrhetinic acid. The tritiated cortisol was captured by a mixture of an anti-cortisol monoclonal antibody and SPA beads coated with anti-mouse antibodies. The reaction plate was shaken at room temperature and the radiolabel bound to SPA beads was then measured on a scintillation counter. The 11β-HSD1 assay was carried out in 96-well microtiter plates in a total volume of […]. To start the assay, 188 μL of master mix which contained 75 nM ^3H-cortisone, 100 nM cortisone and 181 μM NADPH was added to the wells. In order to drive the reaction in the 11β-reductase direction, 1 mM glucose-6-phosphate (G-6-P) and 1 U/mL G-6-P dehydrogenase were also added as a NADPH generating system. Solid compound was dissolved in dimethyl sulfoxide to make a 10 mM stock followed by a subsequent 10-fold serial dilution with dimethyl sulfoxide. Each compound solution in dimethyl sulfoxide was 10-fold diluted in Tris/EDTA buffer (pH 7.4). 22 μL of titrated compound were then added in duplicate to the substrate. Reactions were initiated by the addition of 10 μL of 0.1 mg/mL E. coli lysates overexpressing 11β-HSD1 enzyme. After shaking and incubating plates for 30 minutes at room temperature, reactions were stopped by adding 10 μL of 1 mM glycyrrhetinic acid. The product, tritiated cortisol, was captured by adding 10 μL of 1 μM monoclonal mouse anti-cortisol antibodies and 50 μL of SPA beads coated with anti-mouse antibodies. After shaking for 30 minutes, plates were read in a Microbeta scintillation counter. Percent inhibition was calculated based on the background and the maximal signal. Wells that contained substrate without compound or enzyme were used as the background, while the wells that contained substrate and enzyme without any compound were considered as maximal signal. Percent of inhibition of each compound was calculated relative to the maximal signal and IC50 curves were generated. Assuming competitive inhibition the Cheng-Prusoff equation was used to calculate apparent Ki values from the IC50 values. This assay was applied to 11β-HSD2 as well, whereby 6 nM tritiated cortisol and 250 uM NAD^+ were used as substrate and cofactor, respectively.

T1 sequence (P28845 24-287): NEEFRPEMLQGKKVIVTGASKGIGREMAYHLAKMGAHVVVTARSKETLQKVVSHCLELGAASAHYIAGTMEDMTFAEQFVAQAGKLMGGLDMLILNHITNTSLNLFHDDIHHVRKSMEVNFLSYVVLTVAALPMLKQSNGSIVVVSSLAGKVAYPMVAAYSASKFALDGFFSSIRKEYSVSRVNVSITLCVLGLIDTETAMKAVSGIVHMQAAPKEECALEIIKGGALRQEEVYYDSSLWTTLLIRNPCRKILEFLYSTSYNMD

Row | Compound | Ki [nM]
1 | CC(C)(Oc1ccc(Cl)cc1)C(=NC#N)NC12CCC(C(N)=O)(CC1)CC2 [Example 47, 4-{[2-(4-chlorophenoxy)-N-cyano-2-methylpropanimidoyl]amino}bicyclo[2.2.2]octane-1-carboxamide] | 10 to 100
2 | CC(C)(Oc1ccc(Cl)cn1)C(=NC#N)NC1C2CC3CC1CC(C(N)=O)(C3)C2 (stereo not drawn) [Example 75, (E)-4-({(1E)-2-[(5-chloropyridin-2-yl)oxy]-N-cyano-2-methylpropanimidoyl}amino)adamantane-1-carboxamide] | 10 to 100
3 | CC(C)(Oc1ccc(Cl)cc1)C(=NC#N)NC12CCC(C(N)=O)(CC1)C2 [Example 88, 4-{[2-(4-chlorophenoxy)-N-cyano-2-methylpropanimidoyl]amino}bicyclo[2.2.1]heptane-1-carboxamide] | 100 to 1000
4 | CC(C)(Oc1ccc(F)cc1F)C(=NC#N)NC1C2CC3CC1CC(O)(C3)C2 (stereo not drawn) [Example 51, (1E)-N′-cyano-2-(2,4-difluorophenoxy)-N-[(E)-5-hydroxyadamantan-2-yl]-2-methylpropanimidamide] | ≤ 10
5 | CC(C)(Oc1ccc(Cl)cn1)/C(=N\C#N)N[C@@H]1[C@@H]2C[C@@H]3C[C@H]1C[C@@](O)(C3)C2 [Example 58, (1E)-2-[(5-chloropyridin-2-yl)oxy]-N′-cyano-N-[(E)-5-hydroxyadamantan-2-yl]-2-methylpropanimidamide] | 100 to 1000
6 | (1E)-N-(adamantan-1-yl)-N-cyano-2-(2,4-difluorophenoxy)-2-methylpropanimidamide [Example 71] | 10 to 100
7 | CC(C)(Oc1ccc(Cl)cn1)C(=NC#N)NC1C2CC3CC1CC(S(N)(=O)=O)(C3)C2 (stereo not drawn) [Example 68, (1E)-2-[(5-chloropyridin-2-yl)oxy]-N-cyano-2-methyl-N-[(E)-5-sulfamoyladamantan-2-yl]propanimidamide] | > 1000
8 | CC(C)(Oc1ccc(Cl)cc1)C(=NC#N)NC1CN2CCC1CC2 (stereo not drawn) [Example 40, N-1-Azabicyclo[2.2.2]oct-3-yl-2-(4-chlorophenoxy)-N′-cyano-2-methylpropanimidamide] | > 1000
9 | CC(C)(Oc1ccccc1)C(=NC#N)NC1C2CC3CC1CC(O)(C3)C2 (stereo not drawn) [Example 49, (1E)-N′-cyano-N-[(E)-5-hydroxyadamantan-2-yl]-2-methyl-2-phenoxypropanimidamide] | 10 to 100
10 | CC(C)(OCc1ccc(C(F)(F)F)cc1)C(=NC#N)NC1C2CC3CC1CC(C(=O)O)(C3)C2 (stereo not drawn) [Example 24, (E)-4-[((1E)-N-Cyano-2-methyl-2-{[4-(trifluoromethyl)benzyl]oxy}propanimidoyl)amino]adamantane-1-carboxylic acid] | 10 to 100
11 | N#CN=C(NC1C2CC3CC1CC(O)(C3)C2)C1(c2ccc(Cl)cc2)CCC1 (stereo not drawn) [Example 3, 1-(4-Chlorophenyl)-N′-cyano-N-[(E)-5-hydroxy-2-adamantyl]cyclobutanecarboximidamide] | > 1000
12 | N#CN=C(NC1C2CC3CC1CC(O)(C3)C2)C1(Oc2cccc(Cl)c2)CCC1 (stereo not drawn) [Example 15, 1-(3-Chlorophenoxy)-N′-cyano-N-[(E)-5-hydroxy-2-adamantyl]cyclobutane carboximidamide] | 100 to 1000
13 | CC(C)(Oc1ccc(Cl)cc1)/C(=N\C#N)NC12CC3CC(CC1C3)C2 [Example 38, (1E)-2-(4-Chlorophenoxy)-N′-cyano-N-hexahydro-2,5-methanopentalen-3a(1H)-yl-2-methylpropanimidamide] | 10 to 100
14 | CC(C)(Oc1ccc(Cl)cc1F)C(=NC#N)NC1CC2CCC1C2 (stereo not drawn) [Example 66, N-(exo-bicyclo[2.2.1]hept-2-yl)-2-(4-chloro-2-fluorophenoxy)-N-cyano-2-methylpropanimidamide] | 100 to 1000
15 | CC(C)(Oc1ccccc1)C(=NC#N)NC12CCC(C(F)F)(CC1)C2 [Example 89, N′-cyano-N-[4-(difluoromethyl)bicyclo[2.2.1]hept-1-yl]-2-methyl-2-phenoxypropanimidamide] | 10 to 100
16 | [H]/N=C(/NC1C2CC3CC1CC(C(N)=O)(C3)C2)C(C)(C)Oc1ccccc1 (stereo not drawn) [Example 76, (E)-4-[(2-methyl-2-phenoxypropanimidoyl)amino]adamantane-1-carboxamide] | > 1000
17 | Cc1ccccc1CC(=NC#N)NC1C2CC3CC1CC(O)(C3)C2 (stereo not drawn) [Example 2, (1E)-N-Cyano-N-[(E)-5-hydroxy-2-adamantyl]-2-(2-methylphenyl)ethanimidamide] | > 1000

Row | Compound | Ki [nM]
18 | CC(C)(Oc1ccc(F)cc1F)/C(=N\C#N)N[C@@H]1[C@@H]2C[C@@H]3C[C@H]1C[C@@](C#N)(C3)C2 [Example 52, (1E)-N′-cyano-N-[(E)-5-cyanoadamantan-2-yl]-2-(2,4-difluorophenoxy)-2-methylpropanimidamide] | 10 to 100
19 | CC(C)(Oc1ccc(Cl)cc1F)C(=NC#N)NC12CC3CC(CC1C3)C2 [Example 73, 2-(4-chloro-2-fluorophenoxy)-Y-cyano-N-(hexahydro-2,5-methanopentalen-3a(1H)-yl)-2-methylpropanimidamide] | 100 to 1000
20 | COC(=O)C12CC3CC(C1)C(NC(=NC#N)C(C)(C)Oc1ccc(Cl)cc1)C(C3)C2 (stereo not drawn) [Example 11, Methyl(E)-4-{[(1E)-2-(4-chlorophenoxy)-N-cyano-2-methylpropanimidoyl]amino}adamantane-1-carboxylate] | 100 to 1000
21 | CC(C)(Oc1ccccc1)C(=NC#N)NC12CCC(C(F)F)(CC1)CC2 [Example 86, N-cyano-N-[4-(difluoromethyl)bicyclo[2.2.2]oct-1-yl]-2-methyl-2-phenoxypropanimidamide] | 10 to 100
22 | CC(C)(OCc1ccc(C(F)(F)F)cc1)C(=NC#N)NC1C2CC3CC1CC(C#N)(C3)C2 (stereo not drawn) [Example 27, (1E)-N-Cyano-N-[(E)-5-cyano-2-adamantyl]-2-methyl-2-{[4-(trifluoromethyl)benzyl]oxy}propanimidamide] | ≤ 10
23 | CC(C)(Oc1ccccc1)C(=NC#N)NC12CCC(C(=O)O)(CC1)CC2 [Example 87, 4-{[N-cyano-2-methyl-2-phenoxypropanimidoyl]amino}bicyclo[2.2.2]octane-1-carboxylic acid] | > 1000
24 | CC(C)(Oc1ccc(Cl)cc1)/C(=N\C#N)N[C@@H]1[C@@H]2C[C@@H]3C[C@H]1C[C@@](C(=O)O)(C3)C2 [Example 36, (E)-4-{[(1E)-2-(4-Chlorophenoxy)-N-cyano-2-methylpropanimidoyl]amino}adamantane-1-carboxylic acid] | 100 to 1000
25 | COC(=O)C12CC3CC(C1)C(NC(=NC#N)C(C)(C)OCc1ccc(OC)cc1)C(C3)C2 (stereo not drawn) [Example 28, Methyl(E)-4-({(1E)-N-cyano-2-[(4-methoxybenzyl)oxy]-2-methylpropanimidoyl}amino)adamantane-1-carboxylate] | 100 to 1000
26 | COC(=O)C12CC3CC(C1)C(NC(=S)C(C)(C)N1CCN(c4ccc(C(F)(F)F)cn4)CC1)C(C3)C2 (stereo not drawn) [Example 21, Methyl(E)-4-[(2-methyl-2-{4-[5-(trifluoromethyl)pyridin-2-yl]piperazin-1-yl}propanethioyl)amino]adamantane-1-carboxylate] | 10 to 100
27 | CC(C)(Oc1ccc(F)cc1F)/C(=N\C#N)N[C@@H]1[C@@H]2C[C@@H]3C[C@H]1C[C@@](S(N)(=O)=O)(C3)C2 [Example 57] | 10 to 100
28 | CC(C)(Oc1ccccc1)C(=NC#N)NC12CCC(C(N)=O)(CC1)C2 [Example 81, 4-{[N-cyano-2-methyl-2-phenoxypropanimidoyl]amino}bicyclo[2.2.1]heptane-1-carboxamide] | > 1000
29 | CC(C)(Oc1ccc(Cl)cc1F)/C(=N\C#N)NC1CN2CCC1CC2 (stereo not drawn) [Example 72, (1E)-N-(1-azabicyclo[2.2.2]oct-3-yl)-2-(4-chloro-2-fluorophenoxy)-N′-cyano-2-methylpropanimidamide] | > 1000
30 | CC(C)(Oc1ccccc1)C(=NC#N)NC12CCC(C#N)(CC1)CC2 [Example 84, N′-cyano-N-(4-cyanobicyclo[2.2.2]oct-1-yl)-2-methyl-2-phenoxypropanimidamide] | 100 to 1000
31 | N#CN=C(Cc1cccnc1Cl)NC1C2CC3CC1CC(O)(C3)C2 (stereo not drawn) [Example 6, (1E)-2-(2-Chloropyridin-3-yl)-N′-cyano-N-[(E)-5-hydroxy-2-adamantyl]ethanimidamide] | > 1000
32 | CC(C)(Oc1ccccc1)/C(=N\C#N)NC1C2CC3CC1CC(S(C)(=O)=O)(C3)C2 (stereo not drawn) [Example 64, (1E)-N-cyano-2-methyl-N-[(E)-5-(methylsulfonyl)adamantan-2-yl]-2-phenoxypropanimidamide] | ≤ 10
33 | CON=C(NC1C2CC3CC1CC(S(C)(=O)=O)(C3)C2)C(C)(C)Oc1ccc(Cl)cc1 (stereo not drawn) [Example 13, (1E)-2-(4-Chlorophenoxy)-N-methoxy-2-methyl-N-[(E)-5-(methylsulfonyl)-2-adamantyl]propanimidamide] | 100 to 1000
